Data on 21 compounds can be found in patent publication US10017506B2, “ATX modulating agents” (BIOGEN MA INC., priority 2012, dated 2018).

Each structure is given as a SMILES string. pIC50: −log10 of the molar value.

The target in one experiment is T1, Human ATX protein (Homo sapiens, UniProt Q13822).
T1 construct: made in house
Description: ATX biochemical FRET assay with FS-3 substrate. Conditions: FRET substrate FS-3 2 μM, ATX 1.0 μg/mL, 30 minutes pre-incubation, 2 hours at room temperature; read-out: IC50. An excerpt:
ATX (Autotaxin) is a 125 KDa glycoprotein with lysophospholipase D (LPLD) activity that generates the bioactive lipid lysophosphatidic acid (LPA) from lysophosphatidylcholine (LPC). The ATX biochemical assay utilizes a FRET (fluorescence resonance energy transfer) technology platform. The fluorescence signal of FRET substrate FS-3 is quenched due to intra-molecular FRET of a fluorophore to a non-fluorescing quencher (Ferguson, C. G., et al., Org Lett. 2006 May 11; 8(10): 2023-2026, which is incorporated by reference in its entirety). ATX catalyzes the hydrolysis of the substrate which separates the dabsyl quencher from the fluorescein reporter, which becomes fluorescent. The reaction is monitored by a SpectraMax M5 (Molecular Devices, Sunnyvale, Calif.) with at excitation wavelength 485 nm and emission wavelength […].
Fatty acid free-BSA (Sigma A8806): 10 mg/mL in H2O, stored at 4° C.
2×ATX assay buffer: 100 mM Tris, 280 mM NaCl, 10 mM KCl, 2 mM CaCl2, 2 mM MgCl2, pH 7.4.
Human ATX protein: expressed and purified in house. Stored at −80° C.
Substrate FS-3 (Echelon, L-2000): 100 μg in 77.74 μL H2O (1 mM stock), stored at −20° C.
384-well flat bottom plates—Corning #3575.
Compound dilution—All compounds were provided at 10 mM in 100% DMSO. In the first well, 2 μL of 10 mM compound was added to 78 μL of DMSO (1:40 dilution). In subsequent wells 3-fold dilution (total 10 dilutions) were performed.
1×ATX assay buffer was made up with a final concentration of 1 mg/mL fatty acid free-BSA using 2×ATX assay buffer, 10 mg/ml fatty acid free-BSA and ddH2O.
ATX protein was diluted with 1×ATX assay buffer to a concentration of 1.32 μg/mL (1.32×). 38 μL was added per well to the assay plate. The final concentration of ATX in the reaction as 1.0 μg/mL.
2 μL per well of compounds was transferred to provide the desired concentration. The plate was centrifuged, then incubated at room temperature for 30 minutes on the shaker.
Then, 10 μL was added per well to the assay plate. […] The plate was centrifuged. The plate was kept shaking at room temperature for 2 hours. Because FS-3 substrate is light sensitive, plates were kept covered and protected from light.
Fluorescence was measured using SpectraMax M5 (excitation at 485 nm/emission at 538 nm, top read).
In general, pIC50 refers to the IC50 on a negative log10 scale, so that one unit is a factor of ten. Turning to `CC[C@H]1CC[C@@H](Oc2ccc3ccc(CN4CCC(C(=O)O)CC4)cc3c2C(F)(F)F)CC1` [Example 50, 1-((7-((cis-4-ethylcyclohexyl)oxy)-8-(trifluoromethyl)naphthalen-2-yl)methyl)piperidine-4-carboxylic acid], the pIC50 is no less than 6.30.

On to `O=C(O)C1CCC(NCc2ccc3ccc(O[C@H]4CC[C@@H](C(F)(F)F)CC4)c(C(F)(F)F)c3c2)C1` (stereo partly drawn) [Example 127, 3-(((8-(trifluoromethyl)-7-((cis-4-(trifluoromethyl)cyclohexyl)oxy)naphthalen-2-yl)methyl)amino)cyclopentanecarboxylic acid], for which the pIC50 was no less than 6.30.

Turning to `CC[C@H]1CC[C@@H](Oc2ccc3ccc([C@@H](C)N[C@H]4C[C@H](C(=O)O)C4(C)C)cc3c2C(F)(F)F)CC1` [Example 118c, (1S,3S)-3-(((R)-1-(7-((cis-4-ethylcyclohexyl)oxy)-8-(trifluoromethyl)naphthalen-2-yl)ethyl)amino)-2,2-dimethylcyclobutanecarboxylic acid], the pIC50 was no less than 6.60.

With `CC(N[C@H]1CC[C@@H](C(=O)O)CC1)c1ccc2ccc(O[C@H]3CC[C@@H](C)CC3)c(C(F)(F)F)c2c1` (stereo partly drawn) [Example 142, cis-4-((1-(7-((cis-4-methylcyclohexyl)oxy)-8-(trifluoromethyl)naphthalen-2-yl)ethyl)amino)cyclohexanecarboxylic acid], the pIC50 was no less than 7.00.

In the case of `CC[C@H]1CC[C@@H](Oc2ccc3ccc(C(C)N[C@H]4C[C@@H](C(=O)O)C4(C)C)cc3c2C(F)(F)F)CC1` (stereo partly drawn) [Example 116], the pIC50 was no less than 7.00.

Turning to `CC(N[C@H]1C[C@@H](C(=O)O)C1(C)C)c1ccc2ccc(O[C@H]3CC[C@@H](C(F)(F)F)CC3)c(C(F)(F)F)c2c1` (stereo partly drawn) [Example 120, (1R,3S)-2,2-dimethyl-3-((1-(8-(trifluoromethyl)-7-((cis-4-(trifluoromethyl)cyclohexyl)oxy)naphthalen-2-yl)ethyl)amino)cyclobutanecarboxylic acid], the pIC50 is no less than 7.00.

With `CC(N[C@@H]1C[C@H](C(=O)O)C1(C)C)c1ccc2ccc(O[C@H]3CC[C@@H](C(F)(F)F)CC3)c(C(F)(F)F)c2c1` (stereo partly drawn) [Example 119, (1S,3R)-2,2-dimethyl-3-((1-(8-(trifluoromethyl)-7-((cis-4-(trifluoromethyl)cyclohexyl)oxy)naphthalen-2-yl)ethyl)amino)cyclobutanecarboxylic acid], the pIC50 is no less than 7.00.

Regarding `O=C(O)C[C@H]1CCCN(Cc2ccc3ccc(O[C@H]4CC[C@@H](C(F)(F)F)CC4)c(C(F)(F)F)c3c2)C1` [Example 7, 2-((R)-1-((8-(trifluoromethyl)-7-((cis-4-(trifluoromethyl)cyclohexyl)oxy)naphthalen-2-yl)methyl)piperidin-3-yl)acetic acid], the pIC50 was no less than 7.00.

As for `CC(C)[C@H]1CC[C@@H](Oc2ccc3ccc(CN4CCC(C(=O)O)CC4)cc3c2C(F)(F)F)CC1` [Example 106, 1-((7-((cis-4-isopropylcyclohexyl)oxy)-8-(trifluoromethyl)naphthalen-2-yl)methyl)piperidine-4-carboxylic acid], the pIC50 was no less than 6.30.

With `CC(N[C@H]1CC[C@H](C(=O)O)CC1)c1ccc2ccc(O[C@H]3CC[C@@H](C(F)(F)F)CC3)c(C(F)(F)F)c2c1` (stereo partly drawn) [Example 143, trans-4-((1-(8-(trifluoromethyl)-7-((cis-4-(trifluoromethyl)cyclohexyl)oxy)naphthalen-2-yl)ethyl)amino)cyclohexanecarboxylic acid], the pIC50 is no less than 6.30.

On to `CC(C)(C)[C@H]1CC[C@H](Nc2cc3cc(C(=O)N[C@H]4CC[C@@H](C(=O)O)CC4)ccc3cn2)CC1` [Example 154, cis-4-(3-((trans-4-(tert-butyl)cyclohexyl)amino)isoquinoline-6-carboxamido)cyclohexane carboxylic acid], for which the pIC50 was no less than 7.00.

The experiment is the same for the next values; noted with them: IC50, FRET substrate FS-3 2 μM, ATX 1.0 μg/mL, 30 minutes pre-incubation, 2 hours at room temperature.
`CC(c1ccc2ccc(O[C@H]3CC[C@@H](C(F)(F)F)CC3)c(Cl)c2c1)N1C2CCC1CC(C(=O)O)C2` (stereo partly drawn) [Example 29, 8-(1-(8-chloro-7-((cis-4-(trifluoromethyl)cyclohexyl)oxy)naphthalen-2-yl)ethyl)-8-azabicyclo[3.2.1]octane-3-carboxylic acid] showed a pIC50 of no less than 6.60.

`CC[C@H]1CC[C@@H](Oc2ccc3ccc([C@H](C)N4C5CCCC4CC(C(=O)O)C5)cc3c2C(F)(F)F)CC1` (stereo partly drawn) [Example 133a, 9-((S)-1-(7-((cis-4-ethylcyclohexyl)oxy)-8-(trifluoromethyl)naphthalen-2-yl)ethyl)-9-azabicyclo[3.3.1]nonane-3-carboxylic acid] had a pIC50 of no less than 7.00.

Turning to `CC[C@H]1CC[C@@H](Oc2ccc3ccc(C(C)N4C5CCCC4CC(C(=O)O)C5)cc3c2Cl)CC1` (stereo partly drawn) [Example 66, 9-(1-(8-chloro-7-((cis-4-ethylcyclohexyl)oxy)naphthalen-2-yl)ethyl)-9-azabicyclo[3.3.1]nonane-3-carboxylic acid], the pIC50 was no less than 6.60.

As to `CC[C@H]1CC[C@@H](Oc2ccc3ccc(CN4C5CCCC4CC(C(=O)O)C5)cc3c2C(F)(F)F)CC1` (stereo partly drawn) [Example 52, 9-((7-((cis-4-ethylcyclohexyl)oxy)-8-(trifluoromethyl)naphthalen-2-yl)methyl)-9-azabicyclo[3.3.1]nonane-3-carboxylic acid], the pIC50 was no less than 7.00.

Regarding `N#Cc1c(O[C@H]2CC[C@@H](C(F)(F)F)CC2)ccc2ccc(CN3C4CCCC3CC(C(=O)O)C4)cc12` (stereo partly drawn) [Example 35, 9-((8-cyano-7-((cis-4-(trifluoromethyl)cyclohexyl)oxy)naphthalen-2-yl)methyl)-9-azabicyclo[3.3.1]nonane-3-carboxylic acid], the pIC50 is no less than 6.60.

`CC(c1ccc2ccc(O[C@H]3CC[C@@H](C(F)(F)F)CC3)c(C(F)(F)F)c2c1)N1C2CCC1CC(C(=O)O)C2` (stereo partly drawn) [Example 12, 8-{1-[7-(cis-4-trifluoromethyl-cyclohexyloxy)-8-trifluoromethyl-naphthalen-2-yl]-ethyl}-8-aza-bicyclo[3.2.1]octane-3-carboxylic acid]: the pIC50 is no less than 7.00.

In turn, `CC[C@H]1CC[C@@H](Oc2ccc3ccc(CN4C5CCCC4CC(C(=O)O)C5)cc3c2Cl)CC1` (relative stereo) [Example 49, 9-((8-chloro-7-((cis-4-ethylcyclohexyl)oxy)naphthalen-2-yl)methyl)-9-azabicyclo[3.3.1]nonane-3-carboxylic acid] showed a pIC50 of no less than 7.00.

For the compound `O=C(O)C1CC2CCC(C1)N2Cc1cc2c(C(F)(F)F)c(O[C@H]3CC[C@@H](C(F)(F)F)CC3)ccc2cc1F` (stereo partly drawn) [Example 141, 8-((3-fluoro-8-(trifluoromethyl)-7-((cis-4-(trifluoromethyl)cyclohexyl)oxy)naphthalen-2-yl)methyl)-8-azabicyclo[3.2.1]octane-3-carboxylic acid], the pIC50 was no less than 7.00.

In turn, `CC[C@H]1CC[C@@H](Oc2ccc3ccc(CN4C5CCC4CC(C(=O)O)C5)cc3c2Cl)CC1` (stereo partly drawn) [Example 48, 8-((8-chloro-7-((cis-4-ethylcyclohexyl)oxy)naphthalen-2-yl)methyl)-8-azabicyclo[3.2.1]octane-3-carboxylic acid] showed a pIC50 of no less than 7.00.

As for `CC[C@H]1CC[C@@H](Oc2ccc3ccc([C@H](C)N4C5CCC4CC(C(=O)O)C5)cc3c2C(F)(F)F)CC1` (stereo partly drawn) [Example 144a, 8-((S)-1-(7-((cis-4-ethylcyclohexyl)oxy)-8-(trifluoromethyl)naphthalen-2-yl)ethyl)-8-azabicyclo[3.2.1]octane-3-carboxylic acid], the pIC50 is no less than 6.30.
